# Measurements from patent US20220401418A1, “TREATMENT OF MALARIA USING HISTONE DEACETYLASE (HDAC) INHIBITORS” (FOUNDATION FOR NEGLECTED DISEASE RESEARCH, priority 2019, published 2022).
# Read-outs that look alike come from different tables or passages of the source.
# Key:
# [1] = format: in vitro ADME; details: mouse, microsomes, 2 h, 10 μM
# Source text: (§1) Method Reference for Table 3: Chung T D Y et al. In Vitro and In Vivo Assessment of ADME and PK Properties during lead selection and lead optimisation-guidelines, benchmarks and rules of thumb. In: Assay Guidance Manual. 2015.
# CYP 2D6 = CYP 2D6 (Homo sapiens, UniProt P10635); experiment: Cyp inhibition CYP 2D6; format: in vitro ADME
# Sequence of CYP 2D6 (P10635 whole entry, species assumed): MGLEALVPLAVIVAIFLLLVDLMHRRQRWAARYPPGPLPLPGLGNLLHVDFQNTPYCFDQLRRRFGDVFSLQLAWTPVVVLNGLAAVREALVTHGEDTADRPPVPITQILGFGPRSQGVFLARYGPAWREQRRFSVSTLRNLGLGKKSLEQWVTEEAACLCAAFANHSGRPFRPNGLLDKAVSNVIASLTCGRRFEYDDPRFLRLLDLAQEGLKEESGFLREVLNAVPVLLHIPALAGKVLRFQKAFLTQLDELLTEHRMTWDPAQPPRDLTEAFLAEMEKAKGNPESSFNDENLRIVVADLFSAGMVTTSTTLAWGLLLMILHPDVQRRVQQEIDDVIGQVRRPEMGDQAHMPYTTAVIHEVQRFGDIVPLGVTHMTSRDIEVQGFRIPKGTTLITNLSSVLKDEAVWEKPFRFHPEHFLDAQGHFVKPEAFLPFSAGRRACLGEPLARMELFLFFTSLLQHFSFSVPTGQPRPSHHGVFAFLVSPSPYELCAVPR
# Source text: as §1
# CYP 3A4 = CYP 3A4 (Homo sapiens, UniProt P08684); experiment: Cyp inhibition CYP 3A4; format: in vitro ADME
# Sequence of CYP 3A4 (P08684 whole entry, species assumed): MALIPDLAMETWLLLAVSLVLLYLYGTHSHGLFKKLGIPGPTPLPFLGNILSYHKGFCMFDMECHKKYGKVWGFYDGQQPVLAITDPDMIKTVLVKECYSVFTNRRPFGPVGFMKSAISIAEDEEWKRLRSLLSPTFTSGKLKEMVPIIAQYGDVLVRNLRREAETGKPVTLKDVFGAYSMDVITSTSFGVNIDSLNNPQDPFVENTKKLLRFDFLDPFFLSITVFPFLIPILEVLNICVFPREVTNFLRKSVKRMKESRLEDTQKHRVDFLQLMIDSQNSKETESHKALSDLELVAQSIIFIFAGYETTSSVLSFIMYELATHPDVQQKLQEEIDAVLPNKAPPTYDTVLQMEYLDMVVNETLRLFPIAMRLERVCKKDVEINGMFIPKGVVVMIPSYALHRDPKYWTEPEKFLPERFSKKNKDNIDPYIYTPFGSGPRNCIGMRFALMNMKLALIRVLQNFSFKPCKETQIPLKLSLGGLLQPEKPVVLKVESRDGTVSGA
# Source text: as §1
# P. falciparum = experiment: In vivo efficacy in humanized SCID mouse model of P. falciparum malaria; details: for reduction in parasitaemia: intra-peritoneal, humanized SCID mice
# Source text: In vivo efficacy assessed in humanized SCID mouse model of P. falciparum malaria.
# Plasma Protein = experiment: Plasma protein binding, human; format: in vitro ADME; details: summary statement on Table 3, across species
# Source text: as §1
# Plasma stability, human = format: in vitro ADME
# Source text: as §1
# CYP 1A2 = target: T1, CYP 1A2 (Homo sapiens, UniProt P05177); experiment: Cyp inhibition CYP 1A2; format: in vitro ADME; details: summary statement on Table 3, all CYP isoforms tested
# T1 sequence (P05177 1-516): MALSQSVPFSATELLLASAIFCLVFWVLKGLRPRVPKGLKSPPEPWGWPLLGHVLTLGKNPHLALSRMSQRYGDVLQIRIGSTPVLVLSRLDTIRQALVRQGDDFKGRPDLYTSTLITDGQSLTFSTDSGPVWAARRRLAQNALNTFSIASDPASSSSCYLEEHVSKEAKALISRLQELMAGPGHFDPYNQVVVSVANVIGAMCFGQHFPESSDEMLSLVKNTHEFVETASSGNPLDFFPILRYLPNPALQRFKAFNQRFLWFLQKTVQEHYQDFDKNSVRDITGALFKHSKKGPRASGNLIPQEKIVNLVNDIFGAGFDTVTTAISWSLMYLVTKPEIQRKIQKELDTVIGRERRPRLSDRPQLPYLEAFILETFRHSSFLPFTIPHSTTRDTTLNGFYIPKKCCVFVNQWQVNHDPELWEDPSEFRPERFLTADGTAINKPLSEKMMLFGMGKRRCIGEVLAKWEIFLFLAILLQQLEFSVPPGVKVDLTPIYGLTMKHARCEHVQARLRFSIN
# Source text: as §1
# [2] = Microsomal stability, HLM; format: in vitro ADME
# Source text: as §1
# [3] = system: Hu HDAC (HeLa nuclear extract); experiment: HDAC activity screening, fluorescence assay with HeLa nuclear extract; format: biochemical, human; details: HeLa nuclear extract as enzyme source
# Experimental: HDAC inhibition screening was performed using a fluorescence-based assay with a fluorescent substrate (BocLys (Ac)-AMC Substrate). HeLa nuclear extract was used as the enzyme source.
# The assay was performed in 96-well black microplates, and the total volume of the assay was set at 100 μl. […] The enzyme mixture was prepared by adding […] of the diluted enzyme (HeLa nuclear extract) to […] of HDAC buffer. From the enzyme mixture, 40 μl was taken and mixed with 10 μl of test compound (final concentration from 0.01 to 10 μM) or vehicle (control). The final mixture (50 μl) was added to each well which was then pre-incubated at 37° C. for 10 min. The HDAC reaction was started by adding 50 μl of HDAC substrate: Boc-Lys (Ac)-AMC (Anaspec, Inc Fremont, Calif., USA). […] The release of AMC was monitored by measuring the fluorescence at an excitation wavelength of 360 nm and an emission wavelength of 460 nm. Buffer and substrate alone served as blank.
# [4] = Microsomal stability, RLM; format: in vitro ADME; details: Test Conc. 10 μM
# Source text: as §1
# [5] = system: Plasmodium falciparum 3D7; experiment: Plasmodium falciparum asexual blood-stage (ABS) assay; format: cell-based
# Experimental: Plasmodium falciparum 3[…]. falciparum asexual blood-stage (ABS) assay, for which the cells were resuscitated from the stabilate and maintained at 5% haematocrit. Red blood cells obtained from the hospital were used to maintain the culture at 1% parasitaemia while screening. Plasmodium falciparum: 3D7 cells were used as a target strain for the assay. Mefloquine (Sigma-Aldrich) was used as a standard inhibitor. At day 1, […] of 10 mM mefloquine was added to columns 12 and 24 of the sterile 384-well black, clear-bottom, cell culture assay plates followed by compound curves which were added using Echo. The P. falciparum 3D7 cells were counted and 20 ml of culture was prepared at 5% haematocrit, 0.3% parasitaemia (as one batch, i.e., 12 plates, prepare 260 ml, to allow for WellMate prime volume) for each plate. From this, 50 μl of culture was added to all wells on all plates using WellMate with small bore tubing on full (S-1) speed. […] The plates were read on Victor plate reader using '384sybrgreen' protocol (excitation 485 nm, emission 528 nm) after which the plate contents were aspirated into 5% Virkon, and disposed of after autoclaving. Percentage inhibition for each test compound was calculated using the following equation: % Inhibition=100-(TEST COMPOUND-BLANK)/(NO INHIBITION-BLANK)*100)
# Pf-HDAC1 = target: T2, Pf-HDAC1 (Plasmodium falciparum, UniProt Q7K6A1); experiment: PfHDAC1 fluorescent activity assay; format: biochemical
# T2 construct: His-tag; FLAG-tag; purchased BPS Bioscience
# T2 sequence (Q7K6A1 1-449): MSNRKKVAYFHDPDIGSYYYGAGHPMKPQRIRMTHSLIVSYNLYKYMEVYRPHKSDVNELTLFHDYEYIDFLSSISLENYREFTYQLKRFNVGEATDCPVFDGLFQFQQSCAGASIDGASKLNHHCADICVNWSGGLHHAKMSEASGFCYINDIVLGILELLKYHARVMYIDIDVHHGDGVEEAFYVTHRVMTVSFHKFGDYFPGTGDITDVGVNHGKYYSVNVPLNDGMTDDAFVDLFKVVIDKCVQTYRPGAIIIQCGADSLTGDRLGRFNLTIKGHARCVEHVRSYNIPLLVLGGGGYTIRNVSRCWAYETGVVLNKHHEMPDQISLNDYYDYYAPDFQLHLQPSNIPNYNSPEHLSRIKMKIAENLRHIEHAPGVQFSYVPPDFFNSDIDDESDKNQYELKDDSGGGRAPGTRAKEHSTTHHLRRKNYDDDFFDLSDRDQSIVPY
# Experimental: The fluorescence developed was measured with excitation at 350-380 nm and emission at 440-460 nm.
# Plasma stability, mouse = format: in vitro ADME
# Source text: as §1
# HERG = HERG (Homo sapiens, UniProt Q12809); experiment: HERG binding; details: summary statement on Table 3
# Sequence of HERG (Q12809 whole entry): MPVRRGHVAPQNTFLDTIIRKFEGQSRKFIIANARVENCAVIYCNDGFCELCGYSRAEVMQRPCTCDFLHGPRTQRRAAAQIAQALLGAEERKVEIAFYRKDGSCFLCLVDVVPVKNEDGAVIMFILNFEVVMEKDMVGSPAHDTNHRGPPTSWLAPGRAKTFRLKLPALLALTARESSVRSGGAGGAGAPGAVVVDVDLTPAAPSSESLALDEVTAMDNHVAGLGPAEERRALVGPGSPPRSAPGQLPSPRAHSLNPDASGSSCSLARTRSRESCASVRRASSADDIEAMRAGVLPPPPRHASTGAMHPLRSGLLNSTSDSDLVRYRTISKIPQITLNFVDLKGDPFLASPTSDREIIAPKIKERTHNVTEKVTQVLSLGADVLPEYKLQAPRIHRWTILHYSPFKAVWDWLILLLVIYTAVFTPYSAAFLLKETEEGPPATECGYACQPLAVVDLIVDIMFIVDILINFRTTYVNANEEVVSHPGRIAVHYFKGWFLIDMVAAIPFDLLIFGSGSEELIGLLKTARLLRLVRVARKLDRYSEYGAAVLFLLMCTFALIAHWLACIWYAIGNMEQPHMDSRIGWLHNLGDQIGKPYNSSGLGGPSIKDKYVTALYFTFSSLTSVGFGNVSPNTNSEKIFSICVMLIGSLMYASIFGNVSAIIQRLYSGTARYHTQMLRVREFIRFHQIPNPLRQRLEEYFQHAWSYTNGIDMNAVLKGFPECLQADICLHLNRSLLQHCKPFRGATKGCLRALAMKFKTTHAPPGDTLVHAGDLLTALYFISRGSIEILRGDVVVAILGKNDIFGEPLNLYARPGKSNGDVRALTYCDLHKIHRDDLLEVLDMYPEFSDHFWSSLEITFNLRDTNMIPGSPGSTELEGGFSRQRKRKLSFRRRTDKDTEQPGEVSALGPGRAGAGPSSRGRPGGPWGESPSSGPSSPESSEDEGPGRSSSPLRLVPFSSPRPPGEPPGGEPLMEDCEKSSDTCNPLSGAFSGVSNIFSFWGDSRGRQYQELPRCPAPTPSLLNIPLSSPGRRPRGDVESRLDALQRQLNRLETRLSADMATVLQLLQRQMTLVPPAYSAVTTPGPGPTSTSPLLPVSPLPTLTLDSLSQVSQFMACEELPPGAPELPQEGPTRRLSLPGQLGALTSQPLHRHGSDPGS
# Source text: as §1
# Plasma stability, rat = format: in vitro ADME
# Source text: as §1
# Plasma stability, dog = format: in vitro ADME
# Source text: as §1
# HepG2 = experiment: Cytotoxicity HepG2; format: cell-based
# Source text: as §1
compound,measurement,setting,value
"O=C(NO)c1ccc(Cn2cc(-c3ccc(CN4CCCC4)cc3)nn2)cc1 [FNDR-20123, N-hydroxy-4-((4-(4-(pyrrolidin-1-ylmethyl)phenyl)-1H-1,2,3-triazol-1-yl)methyl)benzamide]",Microsomal Stability (% remaining at 120 min),[1],76.15%
same,IC50,CYP 2D6,28 µM
same,IC50,CYP 3A4,27 µM
same,reduction in parasitaemia,P. falciparum; 50 mg/kg,98%
same,reduction in parasitaemia,P. falciparum; 100 mg/kg,99%
same,reduction in parasitemia,"P. falciparum; oral, 50 mg/kg body weight for 4 days, humanized SCID mouse",67%
same,plasma protein binding,Plasma Protein,low
same,Plasma Stability (% remaining at 240 min),"Plasma stability, human",98.94%
same,inhibition of the CYP isoforms tested,CYP 1A2,no inhibition
same,Microsomal Stability (% remaining at 120 min),"[2]; HLM, Test Conc. 10 μM, 120 min",85.31%
same,liver microsomal stability,"[2]; summary statement on Table 3, all microsome species",good
same,IC50,[3],~0.003 µM
same,IC50,[3]; listed as 20123,0.003 µM
same,Microsomal Stability (% remaining at 120 min),[4],74.56%
same,IC50,"[5]; Plasmodium falciparum, P. falciparum 3D7, 72 h, read-out: Anti-Malarial Activity Asexual Blood Stage IC50",0.041 µM
same,anti-malarial activity in library screen,[5]; screen of proprietary compound library,potent anti-malarial activity
same,IC50,Pf-HDAC1,0.031 µM
same,Plasma Stability (% remaining at 240 min),"Plasma stability, mouse",89.16%
same,hERG liability,HERG,no hERG liability
same,Plasma Stability (% remaining at 240 min),"Plasma stability, rat",88.90%
same,Plasma Stability (% remaining at 240 min),"Plasma stability, dog",97.72%
same,Cytotoxicity HepG2 (% @ 100 μM),HepG2,12.6%
